Results: US20250221981A1, “MAT2A INHIBITOR AND/OR TSG101 INHIBITOR FOR USE IN ANTIVIRAL THERAPY” (CAMBRIDGE ENTERPRISE LIMITED, priority 2022, published 2025)

Assays:
RPTE/hTERT cells = experiment: Cell viability assay, CellTiter-Blue fluorescence
Method: RPTE/hTERT cells were treated with MAT2A inhibitors at increasing concentrations for 48 hrs and assayed for cell viability using CellTiter-Blue fluorescence. Experiments were conducted using biological triplicates.
Experiment was conducted using biological triplicates.
Cell viability was assessed using the Cell-Titer-Blue assay (Promega), following manufacturers guidelines.

[1] = tested on: Herpes Simplex Virus-1 (HSV-1); experiment: Western blot of HSV-1 ICP0 and VP16 proteins in HaCaT cells; format: cell-based; settings: 20 μM, MOI 10, 16 hrs
Method: FIG. 9: Inhibition of MAT2A with PF-9366 reduces Herpes Simplex Virus-1 (HSV-1) virion assembly Immortalised keratinocyte (HaCaT) cells were plated and treated with 20 μM PF-9366 or DMSO control. After 3 hrs cells were infected with HSV-1 (MOI 10). After 16 hrs cells were harvested by scraping and either pelleted for western blot or freeze/thawed for titration. To titre: VERO cells were plated and the following day infected with 10-fold dilutions, at 1 hpi cells were overlayed with CMC/media. At 48 hpi cells were fixed and stained with toluidine blue. To western blot: Pellets were lysed and run on SDS-PAGE gel. Proteins were transferred overnight to nitrocellulose membranes. Membranes were probed for HSV-1 ICP0 and VP16 proteins and Tubulin as a control.
For HSV-1 infections HaCaT cells were infected with HSV-1 at a multiplicity of infection (MOI) of 10 diluted in appropriate medium. At 1 hour post infection (hpi) medium was removed, cells were washed twice with phosphate-buffered saline (PBS), and fresh medium was added with or without inhibitors. At 16 hpi cells were either harvested for western blot or virus titre by plaque assay.
(§1) Cell lysate preparation and western blots were performed as described in Ren et al. (J Gen Virol. 2012 February; 93 (Pt 2): 319-329). […] Quantification was performed using LI-COR Image Studio Software.

[2] = tested on: Semliki Forest Virus 4 (SFV4); experiment: SFV4 titre by plaque assay (BHK-21 cells infected, titrated on BSR cells); format: cell-based; settings: 2 μM, MOI >10, 24 hrs, initial tests
Method: (§2) (A) SINV and SFV4: BHK-21 cells were plated. The following day 2 μM PF-9366 or DMSO control was added to media. After 3 hrs cells were infected with SINV or SFV4 (MOI >10). After 24 hrs cells were harvested by scraping. Cells were either pelleted for western blot or freeze/thawed for titration. To titre: BSR cells were plated and the following day infected with 10-fold dilutions, at 1 hpi cells were overlayed with LMA in 2×MEM (+5% FCS). At 72 hpi cells were fixed and stained with toluidine blue.
(§3) For Alphavirus infections BHK-21 cells were infected with either SINV or SFV-4 at a multiplicity of infection (MOI) greater than 10, diluted in appropriate medium. At 1 hour post infection (hpi) medium was removed, cells were washed twice with phosphate-buffered saline (PBS), and fresh medium was added. At 24 hpi supernatants were harvested for virus titre by plaque assay.
(§4) For SINV and SFV4, confluent BSR cell monolayers were infected with 10-fold dilutions of samples. At 1 hpi cells were overlayed with low melting-point agarose in 2×MEM (+5% FCS). Cells were fixed at 72 hpi and stained with toluidine blue, allowing plaques to be counted.
(§5) TSG101 inhibitor Ilaprazole (Sigma-Aldrich) was diluted in 100% DMSO. […]

MAT2A = experiment: Western blot of cellular MAT2A expression in BKPyV infected RPTE/TERT1 cells; format: cell-based, human; settings: 10 μM; BKPyV MOI 3; 48 hpi; normalised to tubulin
Method: (C)(i) Effect of PF-9366 on viral early and late gene and cellular MAT2A expression: Cells were infected with BKPyV (MOI 3) in media containing appropriate drug concentrations. At 1 hpi infectious media was removed, cells were washed and fresh media with appropriate drug concentrations was added. Cells were harvested at 48 hpi and a western blot performed. Membranes were blotted for viral late gene VP1, LTAg, cellular MAT2A/MAT1A, and tubulin as a loading control.
(ii) Cellular MAT2A expression increases at lower PF-9366 concentrations: The density of MAT2A expression (lower western blot band) was measured, normalized to tubulin loading control (LiCor Image Studio Software), n=3.
It has previously been noted by Quinlan et al. (Nat Chem Biol. 2017 13 (7): 785-792) that treatment with PF-9366 can increase MAT2A expression as a compensatory mechanism within cells. […] At 48 hpi cells were harvested and protein expression was analysed by western blotting (FIG. 3C(i)). MAT2A expression was quantified from band intensities, normalised to the tubulin loading control and plotted (FIG. 3C(ii), n=3). […]
as §1

Zika American Strain = experiment: Western blot of Zika E protein in VERO E6 cells, American strain; format: cell-based, Zika virus; settings: 20 μM, MOI >10, 48 hrs
Method: (B) Zika: VERO E6 cells were plated. The following day 20 μM PF-9366 or DMSO control was added to media. After 3 hrs cells were infected with Zika African strain, American Strain or Mock infected (MOI >10). After 48 hrs cells were harvested by scraping, pelleted and lysed into lysis buffer. Western blot was then conducted on the lysed cells. Protein embedded SDS-PAGE gels were transferred to membranes overnight and then probed for Zika E protein and GAPDH as a control.
For Flavivirus infections VERO E6 cells were infected with either African (Afn) or American (Amer) Zika at a multiplicity of infection (MOI) greater than 10, diluted in appropriate medium. At 1 hour post infection (hpi) medium was removed, cells were washed twice with phosphate-buffered saline (PBS), and fresh medium was added. At 48 hpi cells were either harvested for western blot.
Cell lysate preparation and western blots were performed as described in Ren et al. (J Gen Virol. 2012 February; 93 (Pt 2): 319-329). Primary antibodies used were ab53977 (VP1), PAb416 (LTAg), sc-166452 (MAT2A/1A), ab110226 (VP16), sc-53070 (ICP0), anti-Zika E Protein, and either anti-GAPDH or anti-tubulin as a loading control, followed by IRDye 680LT-, or IRDye 800CW-conjugated secondary antibodies. Imaging was performed using the LI-COR Odyssey Infrared Imaging system. Quantification was performed using LI-COR Image Studio Software. […]

Sindbis virus (SINV) = experiment: SINV titre by plaque assay (BHK-21 cells infected, titrated on BSR cells); format: cell-based; settings: 2 μM, MOI >10, 24 hrs, initial tests
Method: as §2, §3, §4, §5

Structure (SMILES)	effect on cell viability and metabolism (RPTE/hTERT cells; MAT2A inhibitor (AG270 1 μM, AZ33 125 nM) in combination with Ilaprazole (5 μM), until 144 hr)	effect on cell viability and metabolism (RPTE/hTERT cells; at concentrations inhibiting BKPyV replication, 48 hrs)	impact on viral protein expression (ICP0 and VP16) [1]	reduction in viral titre (SFV4) [2]	increase in the cellular expression of MAT2A (MAT2A) [fold]	viral protein expression (Zika E protein), American strain (Zika American Strain)	reduction in viral titre (SINV) (Sindbis virus (SINV))
COc1ccc(-c2c(Nc3ccccn3)[nH]c3c(C4=CCCCC4)c(-c4ccccc4)nn3c2=O)cc1 [AG-270]	little effect	little effect					
CN(C)CCc1nnc2cc(-c3ccccc3)c3cc(Cl)ccc3n12 [PF-9366]			little impact	7-10 fold	8	reduction	7-10 fold
